Our source for the IC50, Kd and ring closure, yield after HPLC values is patent publication US20250213571A1, “TYK2 INHIBITORS AND USES THEREOF” (Alumis Inc., priority 2022, published 2025).

Molecules are shown by their SMILES.

Sequence of human TYK2 (JH2domain-pseudokinase) (P29597 556-888): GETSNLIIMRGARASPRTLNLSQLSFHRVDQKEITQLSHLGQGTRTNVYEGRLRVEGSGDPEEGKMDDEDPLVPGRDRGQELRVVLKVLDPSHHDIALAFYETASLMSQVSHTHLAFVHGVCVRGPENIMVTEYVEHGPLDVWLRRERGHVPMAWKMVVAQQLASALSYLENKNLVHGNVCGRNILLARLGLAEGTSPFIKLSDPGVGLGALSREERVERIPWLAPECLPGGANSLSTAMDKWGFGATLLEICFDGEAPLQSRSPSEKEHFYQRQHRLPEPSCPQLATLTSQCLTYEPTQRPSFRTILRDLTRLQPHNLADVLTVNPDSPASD
Sequence of JAK3 JH1 (P52333 822-1111): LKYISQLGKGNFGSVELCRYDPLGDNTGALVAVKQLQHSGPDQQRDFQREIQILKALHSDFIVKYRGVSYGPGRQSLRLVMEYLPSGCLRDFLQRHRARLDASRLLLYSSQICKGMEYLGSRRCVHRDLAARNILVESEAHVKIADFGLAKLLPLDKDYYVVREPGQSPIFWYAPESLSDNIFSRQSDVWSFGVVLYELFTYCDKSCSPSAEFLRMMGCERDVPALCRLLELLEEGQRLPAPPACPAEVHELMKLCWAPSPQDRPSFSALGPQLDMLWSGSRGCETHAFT
Sequence of JAK1 JH1 (P23458 875-1153): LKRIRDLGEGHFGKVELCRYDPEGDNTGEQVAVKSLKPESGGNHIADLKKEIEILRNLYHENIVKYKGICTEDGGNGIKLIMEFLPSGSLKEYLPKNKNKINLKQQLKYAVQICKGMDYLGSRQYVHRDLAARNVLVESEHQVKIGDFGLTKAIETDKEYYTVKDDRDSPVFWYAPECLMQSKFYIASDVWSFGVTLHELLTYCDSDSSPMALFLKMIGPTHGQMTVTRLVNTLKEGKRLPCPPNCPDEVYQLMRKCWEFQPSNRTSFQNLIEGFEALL

The first series relates to IFNa, PBMCs, p-STAT3. In words: IFNa induced p-STAT3 in PBMCs. Type of series: cell-based. The conditions noted are these: Homo sapiens, PBMC, IFNa stimulated PBMCs.
As to `CNc1cc2nn3c(cnc13)C(=O)N[C@H](C)COCc1cc(c3nnn(C)c3c1)N2` [Compound 5], the IC50 is under 50 nM.
The molecule `CNc1cc2nn3c(cnc13)C(=O)N[C@H](CO)COCc1cc(c3nnn(C)c3c1)N2` [Compound 2] displayed an IC50 of at least 100 nM.
Take `CNc1cc2nn3c(cnc13)C(=O)N[C@H](C)COCc1cc(c3c(c1)nnn3C)N2` [Compound 1]: the IC50 was under 50 nM.
`CNc1cc2nn3c(cnc13)C(=O)N[C@H](C)COCc1cc(c3nn(C)nc3c1)N2` [Compound 6] returned an IC50 of under 50 nM.

The next series relates to INFα Induced pSTAT5 in Human PBMC. The experiment in a line: INFα induced pSTAT5 in human PBMC. The conditions noted are these: 0.25 h, human PBMCs, INFα 5000 units/ml 15 minutes, p-STAT5, read-out: IFNa, PBMCs, p-STAT5 (IC50). Format: cell-based. Here is the method: Fresh Human PBMCs were resuspended in RPMI 1640 medium with 10% FBS. Cells were seeded in a round bottom 96-well plate at the concentration of 200,000 cells/well. A 10-point dilution series of test compound (top dose 10 uM, 1:5 dilution) was added to the well using the liquid dispenser (Tecan D300e) and incubated for 1 hour at 37 C. Then human INFα recombinant protein (R&D Systems) was added to the well at the final concentration of 5000 units/ml and incubated for 15 minutes at 37 C. Cell lysates were prepared and analyzed by Phospho STAT5 (Tyr693) Kit (Meso Scale Discovery) following manufacturer's protocol.
For calculation of the inhibition rate, the relative pSTAT5 signal of each well=pSTAT5 signal of each well−the average pSTAT5 signal of baseline.
The inhibition %=(the average pSTAT5 signal of INFα treatment wells−the relative of pSTAT5 signal in each compound containing well)/the average pSTAT5 signal of INFα treatment wells*100%
The curve was plotted as the inhibition % (y-axis) vs. compounds concentration (x-axis) and is fitted with log(inhibitor) vs. normalized response—Variable slope by GraphPad Prism7.0.
For the molecule `CNc1cc2nn3c(cnc13)C(=O)N[C@H](C)COCc1cc(c3nnn(C)c3c1)N2` [Compound 5], the IC50 was under 50 nM.
As to `CNc1cc2nn3c(cnc13)C(=O)N[C@H](CO)COCc1cc(c3nnn(C)c3c1)N2` [Compound 2], the half-inhibitory concentration (IC50) was under 50 nM.
On the same count and under the same terms, with `CNc1cc2nn3c(cnc13)C(=O)N[C@H](C)COCc1cc(c3c(c1)nnn3C)N2` [Compound 1] the figure was under 50 nM; with `CNc1cc2nn3c(cnc13)C(=O)N[C@H](C)COCc1cc(c3nn(C)nc3c1)N2` [Compound 6], under 50 nM.

Another series concerns the target JAK1 JH1 (Homo sapiens (Human), UniProt P23458). The experiment in a line: JAK1 JH1 binding (Kd, Table 2). The settings on record: JH1 domain.
As for `CNc1cc2nn3c(cnc13)C(=O)N[C@H](C)COCc1cc(c3nnn(C)c3c1)N2` [Compound 5], the Kd was at least 30000 nM.
Regarding `CNc1cc2nn3c(cnc13)C(=O)N[C@H](C)COCc1cc(c3c(c1)nnn3C)N2` [Compound 1], the Kd is at least 30000 nM.
As to `CNc1cc2nn3c(cnc13)C(=O)N[C@H](C)COCc1cc(c3nn(C)nc3c1)N2` [Compound 6], the Kd is at least 30000 nM.

Tested on in another series: not given
Assay: not given
The conditions noted are these: from Cc1nc2cnc(Br)cn2c1C(=O)N[C@H](C)COCc1cc(N)c2nnn(C)c2c1; cn_pd bond; 14-membered ring; RuPhos Pd G3/Cs2CO3; dioxane; 80.0 °C.
`Cc1nc2cnc3cn2c1C(=O)N[C@H](C)COCc1cc(c2nnn(C)c2c1)N3` [Compound 81] gave a ring closure, yield after HPLC of 20%.

A further series addresses human TYK2 (JH2domain-pseudokinase) (Homo sapiens (Human), UniProt P29597). The experiment in a line: TYK2 JH2 domain binding assay (KINOMEscan).
Settings: not given
In outline: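 KINOMEscan competition: DNA-tagged NFkB-fusion kinase domains from HEK293 extracts (<0.1 nM) bound immobilized ligand with compound for 1 hour at room temperature, 0.9% DMSO. Bead-retained kinase was quantified by qPCR. Kd came from 11-point 3-fold series from 30,000 nM top, in duplicate, Hill fit with slope −1.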
`Cc1nc2cnc3cn2c1C(=O)N[C@H](C)COCc1cc(c2nnn(C)c2c1)N3` [Compound 81] displayed a Kd of 1000 to 10000 nM.
Same read-out and setting: with `CNc1cc2nn3c(cnc13)C(=O)N[C@H](C)COCc1cc(c3nnn(C)c3c1)N2` [Compound 5] the figure was under 10 nM; with `CNc1cc2nn3c(cnc13)C(=O)N[C@H](CO)COCc1cc(c3nnn(C)c3c1)N2` [Compound 2], under 10 nM; with `CNc1cc2nn3c(cnc13)C(=O)N[C@H](C)COCc1cc(c3c(c1)nnn3C)N2` [Compound 1], under 10 nM.
Molecule `CNc1cc2nn3c(cnc13)C(=O)N[C@H](C)COCc1cc(c3nn(C)nc3c1)N2` [Compound 6] showed a Kd of under 10 nM.

The target in a further series is JAK2 JH1 (Homo sapiens (Human), UniProt O60674). In words: JAK2 JH1 binding (Kd, Table 2). The conditions noted are these: JH1 domain.
Sequence of JAK2 JH1 (O60674 849-1124): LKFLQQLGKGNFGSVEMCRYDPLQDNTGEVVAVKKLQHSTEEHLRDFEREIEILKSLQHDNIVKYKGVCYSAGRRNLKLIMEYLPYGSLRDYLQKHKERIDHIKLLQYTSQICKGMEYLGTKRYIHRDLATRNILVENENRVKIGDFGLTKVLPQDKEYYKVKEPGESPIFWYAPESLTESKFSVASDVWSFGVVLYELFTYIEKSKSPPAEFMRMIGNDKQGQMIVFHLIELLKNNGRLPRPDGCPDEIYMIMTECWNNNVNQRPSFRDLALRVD
In the case of `CNc1cc2nn3c(cnc13)C(=O)N[C@H](C)COCc1cc(c3nnn(C)c3c1)N2` [Compound 5], the Kd was at least 30000 nM.
For `CNc1cc2nn3c(cnc13)C(=O)N[C@H](C)COCc1cc(c3c(c1)nnn3C)N2` [Compound 1], the equilibrium dissociation constant (Kd) is at least 30000 nM.
As for `CNc1cc2nn3c(cnc13)C(=O)N[C@H](C)COCc1cc(c3nn(C)nc3c1)N2` [Compound 6], the Kd is at least 30000 nM.

The target in the next series is TYK2 JH1 (Homo sapiens (Human), UniProt P29597). The experiment in a line: TYK2 JH1 binding (Kd, Table 2). The settings on record: JH1 domain.
Sequence of TYK2 JH1 (P29597 897-1176): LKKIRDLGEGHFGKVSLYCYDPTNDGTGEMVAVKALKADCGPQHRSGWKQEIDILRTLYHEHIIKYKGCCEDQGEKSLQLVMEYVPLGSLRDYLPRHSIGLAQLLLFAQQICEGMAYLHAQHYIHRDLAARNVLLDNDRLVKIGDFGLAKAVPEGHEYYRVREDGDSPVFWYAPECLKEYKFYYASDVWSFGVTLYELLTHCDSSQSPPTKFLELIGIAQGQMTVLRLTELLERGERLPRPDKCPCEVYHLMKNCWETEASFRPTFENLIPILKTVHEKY
On to `Cc1nc2cnc3cn2c1C(=O)N[C@H](C)COCc1cc(c2nnn(C)c2c1)N3` [Compound 81], for which the Kd was at least 30000 nM.
The same measure, in the same setting: to `CNc1cc2nn3c(cnc13)C(=O)N[C@H](C)COCc1cc(c3nnn(C)c3c1)N2` [Compound 5] belongs at least 30000 nM; to `CNc1cc2nn3c(cnc13)C(=O)N[C@H](CO)COCc1cc(c3nnn(C)c3c1)N2` [Compound 2], at least 30000 nM; to `CNc1cc2nn3c(cnc13)C(=O)N[C@H](C)COCc1cc(c3c(c1)nnn3C)N2` [Compound 1], 1000 to 10000 nM.
The molecule `CNc1cc2nn3c(cnc13)C(=O)N[C@H](C)COCc1cc(c3nn(C)nc3c1)N2` [Compound 6] displayed a Kd of 1000 to 10000 nM.

For the next series, the target named is JAK2 JH2 (Homo sapiens (Human), UniProt O60674). In words: JAK2 JH2 binding (Kd, Table 2). The settings on record: JH2 domain.
Sequence of JAK2 JH2 (O60674 545-809): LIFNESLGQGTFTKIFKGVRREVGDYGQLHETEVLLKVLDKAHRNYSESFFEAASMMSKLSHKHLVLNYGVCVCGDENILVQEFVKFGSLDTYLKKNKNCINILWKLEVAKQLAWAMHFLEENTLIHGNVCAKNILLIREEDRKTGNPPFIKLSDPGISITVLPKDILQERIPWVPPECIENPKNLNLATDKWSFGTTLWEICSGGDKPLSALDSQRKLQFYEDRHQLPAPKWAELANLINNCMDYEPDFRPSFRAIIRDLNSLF
Consider `CNc1cc2nn3c(cnc13)C(=O)N[C@H](C)COCc1cc(c3nnn(C)c3c1)N2` [Compound 5], for which the Kd fell in the range of 10000 to 30000 nM.
`CNc1cc2nn3c(cnc13)C(=O)N[C@H](C)COCc1cc(c3c(c1)nnn3C)N2` [Compound 1]: the Kd fell in the range of 1000 to 10000 nM.
The same measure, in the same setting: to `CNc1cc2nn3c(cnc13)C(=O)N[C@H](C)COCc1cc(c3nn(C)nc3c1)N2` [Compound 6] belongs 1000 to 10000 nM.

A further series concerns the target JAK3 JH1 (Homo sapiens (Human), UniProt P52333). The experiment in a line: JAK3 JH1 binding (Kd, Table 2). The settings on record: JH1 domain.
The molecule `CNc1cc2nn3c(cnc13)C(=O)N[C@H](C)COCc1cc(c3nnn(C)c3c1)N2` [Compound 5] came in with a Kd of at least 30000 nM.
With `CNc1cc2nn3c(cnc13)C(=O)N[C@H](C)COCc1cc(c3c(c1)nnn3C)N2` [Compound 1], the Kd is at least 30000 nM.
With `CNc1cc2nn3c(cnc13)C(=O)N[C@H](C)COCc1cc(c3nn(C)nc3c1)N2` [Compound 6], the dissociation constant Kd was at least 30000 nM.

For another series, the target named is JAK1 JH2 (Homo sapiens (Human), UniProt P23458). In words: JAK1 JH2 binding (Kd, Table 2). The settings on record: JH2 domain.
Sequence of JAK1 JH2 (P23458 583-855): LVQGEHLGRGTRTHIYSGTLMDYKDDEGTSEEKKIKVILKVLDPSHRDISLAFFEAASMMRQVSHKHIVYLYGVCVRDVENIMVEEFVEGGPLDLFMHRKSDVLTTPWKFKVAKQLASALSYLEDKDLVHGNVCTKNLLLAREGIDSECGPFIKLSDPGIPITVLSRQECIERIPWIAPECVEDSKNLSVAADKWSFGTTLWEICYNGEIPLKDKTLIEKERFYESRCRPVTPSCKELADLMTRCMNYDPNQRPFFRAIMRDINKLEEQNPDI
As to `Cc1nc2cnc3cn2c1C(=O)N[C@H](C)COCc1cc(c2nnn(C)c2c1)N3` [Compound 81], the Kd was at least 30000 nM.
In turn, `CNc1cc2nn3c(cnc13)C(=O)N[C@H](C)COCc1cc(c3nnn(C)c3c1)N2` [Compound 5] came in with a Kd of 1000 to 10000 nM.
`CNc1cc2nn3c(cnc13)C(=O)N[C@H](CO)COCc1cc(c3nnn(C)c3c1)N2` [Compound 2] returned a Kd of 10 to 1000 nM.
With `CNc1cc2nn3c(cnc13)C(=O)N[C@H](C)COCc1cc(c3c(c1)nnn3C)N2` [Compound 1], the Kd is 10 to 1000 nM.
As to `CNc1cc2nn3c(cnc13)C(=O)N[C@H](C)COCc1cc(c3nn(C)nc3c1)N2` [Compound 6], the Kd lay within 10 to 1000 nM.

In general, IC50 refers to the point on the concentration scale where inhibition reaches its midpoint. Broadly, the Kd is the concentration at which binding is half-saturated.
